The values that follow come from PMC11872463, “Identification of a group of 9-amino-acridines that selectively downregulate regulatory T cell functions through FoxP3” (iScience, 2025).

Assay [1] addresses T1, FoxP3 (Homo sapiens, UniProt Q9BZS1).
T1 construct: His-FoxP3 full-length (SPR); His-FoxP3-ΔN (182-421aa) (AlphaScreen, EMSA)
T1 sequence (Q9BZS1 182-421): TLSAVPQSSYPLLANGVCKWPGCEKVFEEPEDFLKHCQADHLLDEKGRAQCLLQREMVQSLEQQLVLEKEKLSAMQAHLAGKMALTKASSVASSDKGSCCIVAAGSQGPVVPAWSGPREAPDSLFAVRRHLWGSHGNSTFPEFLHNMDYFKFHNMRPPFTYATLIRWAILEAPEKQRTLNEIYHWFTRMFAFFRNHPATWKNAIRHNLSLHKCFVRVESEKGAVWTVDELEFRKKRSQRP
Description: SPR, concentration-dependent binding to immobilized FoxP3 (KD not given in main text); IC50 is from AlphaScreen FoxP3-DNA competition; EMSA. The text has this:
SPR, concentration-dependent binding to immobilized FoxP3 (KD not printed in main text); IC50 is from AlphaScreen FoxP3-DNA competition; EMSA on FoxP3 | we confirmed the concentration-dependent binding of QDD and MP4 to immobilized FoxP3 protein (Figure S6B)

Assay [2] deals with T1, FoxP3. Description: biochemical. Further details: SPR on Biacore T200, His-FoxP3 immobilized on CM5 chip, affinity. The procedure:
To explore how 9-amino acridines downregulate FoxP3, directly or indirectly, a low-molecular-weight compound screening (low molecular weight [LMW] screen) was performed using surface plasmon resonance (SPR) analysis to determine affinities between FoxP3 and all the compounds listed in Table 1. […] In contrast, we observed low or no affinity for FoxP3 with compounds that had little or no effects on FoxP3 downregulation (such as MP20 and MP25). Furthermore, we confirmed the concentration-dependent binding of QDD and MP4 to immobilized FoxP3 protein (Figure S6B) with dissociation constant (KD) values corresponding to the observed IC50 in the cell-based assay, implying that the function of 9-amino-acridine analogs on FoxP3 regulation might be due to their direct binding ability. SPR, concentration-dependent binding to immobilized FoxP3 (KD not printed in main text); IC50 is from AlphaScreen FoxP3-DNA competition; EMSA on FoxP3 | we confirmed the concentration-dependent binding of QDD and MP4 to immobilized FoxP3 protein (Figure S6B)

The subject of assay [3] is T2, FoxP3.
T2 construct: endogenous, primary CD4+ T cells
Kind of assay: cells. Particulars: FoxP3 down-regulation in CD4+ T cells, 24 h. Also on record: species or system primary human CD3+ T cells; flow cytometry of FoxP3+ % in CD4+ T cells, normalized to mock (FoxP3 down-regulation). The procedure:
To search for potential small molecular FoxP3 inhibitors, we screened the Prestwick library of approved drugs (1,522 compounds) for compounds that regulated the expression of FoxP3 using a novel high-throughput flow cytometry protocol. Primary CD3^+ T cells from healthy donors were treated with compounds from the Prestwick library at 10 μM for 16 h, followed by a high-throughput flow cytometry analysis measuring FoxP3% in CD4^+ T cells (for workflow, see Figure S1A). Compounds that reduced FoxP3 levels compared to DMSO were selected for further validation. The first verified hit was quinacrine dihydrochloride dihydrate (QDD), where we observed a concentration-dependent FoxP3 downregulation with an IC50 of less than 5 μM in all donors tested (Figures 1A and 1B; Table 1, group 0; Figure S2A). QDD was also confirmed to downregulate FoxP3 in Tregs by gating out CD127^+ cells in both non-stimulated and stimulated T cells (Figure S1B). […] In the first round, compounds MP2, MP3, MP4, and MP5 were identified to be working efficiently in downregulating FoxP3 levels (Table 1, group 2; Table S1; Figure S2C). […] Therefore, a small library of similar acridine and acridinone compounds (Table 1, group 3 and 4; Table S1; Figures S2D and S2E) was assembled by in-silico prediction and assessed for their effects on FoxP3 regulation. […]

Molecules are shown by their SMILES. Where a name gives a salt, the structure may show the parent alone. Read-outs that look alike come from different tables or passages of the source.

As to `CCN(CC)CCCC(C)Nc1c2cc(OC)ccc2nc2cc(Cl)c(N)cc12` (centres unmarked) [MP4, 3-chloro-N9-[5-(diethylamino)pentan-2-yl]-7-methoxyacridine-2,9-diamine], at FoxP3 [1] (read-out: IC50), the IC50 turned out to be 0.37 µM. Also, at FoxP3 [2], the Kd is 6.9 µM.

In the assay on FoxP3 [3], `COc1cc(NC(C)CCCN)c2ncccc2c1` (centres unmarked) [Primaquine] came in with an IC50 of over 100 µM.

In turn, `CCN(CC)CCCC(C)Nc1c2ccc(Cl)cc2nc2ccc(OC)cc12` (centres unmarked) [QDD, 6-chloro-N-[5-(diethylamino)pentan-2-yl]-2-methoxyacridin-9-amine dihydrate dihydrochloride] gave an IC50 on FoxP3 [1] of 2 µM. This molecule registered a Kd on FoxP3 [2] of 4.09 µM.

For orientation: IC50 means the point on the concentration scale where inhibition reaches its midpoint. In general, Kd refers to the free concentration of one partner at which half of the binding sites on the other are occupied at equilibrium, for simple one-to-one binding.
